{"source": "patent US4127534A", "about": "“Novel tripeptides, intermediates therefor and pharmaceutical compositions and methods employing said tripeptides” (priority 1977, dated 1978)", "origin": "cited, not measured here", "key": {"[1]": {"conditions": "injected directly into the brain of the rat"}, "[2]": {"system": "partially purified brain opiate receptor sites"}}}
{"substance": "H-Tyr-Gly-Gly-Phe-Met-OH [methionine enkephalin]", "values": [{"measurement": "analgesic activity", "setting": "[1]", "value": "only weak analgesic agent of short duration"}, {"measurement": "binding to partially purified brain opiate receptor sites", "setting": "[2]", "value": "binds stereo-specifically"}]}
